The text below walks through data of publication PMC12691669, “Inhibitors of the 20S proteasome β5 subunit as potent and selective agents against Trichomonas vaginalis” (Antimicrobial Agents and Chemotherapy, 2025).

Entries after “also recorded” stand apart in the source; their conditions may differ.

Data set [1] deals with T. vaginalis Tv20S proteasome β1 subunit (Trichomonas vaginalis, UniProt A2E7Z2). Nature of the data set: In vitro proteasome assay, Ac-RYFD-amc substrate. As to conditions: recombinant Tv20S, mean ± SD of three experiments. In kind it is biochemical. As to the method: (§1) The T. vaginalis proteasome was expressed in recombinant form as previously described ([27]). Briefly, Spodoptera frugiperda cells were co-infected with three baculovirus vectors carrying the T. vaginalis genes for the 7 α-subunits, 7 β-subunits, and the Ump-1 chaperone, respectively. The resulting proteasome complex was purified from cell lysates via streptavidin column and size exclusion chromatography and stored at −80°C. Purified human c20S proteasome and recombinant human proteasome activator PA28α ([21]) were obtained from Bio-Techne and stored at −80°C. Dilutions of the test agents were transferred to 384-well plates (Greiner Bio-One) in triplicate wells using an Echo 650 Acoustic Liquid Handler (Beckman Coulter). Six replicate plates were prepared for each compound for testing with three T. vaginalis-optimized substrates and three human-optimized substrates. After dispensing, plates were sealed and stored at −20°C. The following fluorescent substrates and final substrate concentrations were used to assay subunit activities of the T. vaginalis proteasome (Tv20S) ([28]) or the human constitutive proteasome (c20S) ([19], [52]): Ac-RYFD-amc (Genscript) at 100 µM for Tv20S β1 subunit, Ac-FRSR-amc (Genscript) at 20 µM for Tv20S β2 subunit, Ac-GWYL-amc (Genscript) at 20 µM for Tv20S β5 subunit, z-LLE-amc (R&D Systems) at 80 µM for c20S β1 subunit, z-VLR-amc (AdipoGen Life Sciences) at 30 µM for c20S β2 subunit, and suc-LLVY-amc (R&D Systems) at 65 µM for c20S β5 subunit. Substrates and proteasomes were diluted in an assay buffer consisting of HEPES pH 7.5 and 1 mM DTT. For the human proteasome assays, 2 nM c20S was incubated at room temperature with 200 nM PA28α for 1 h to activate the complex prior to addition to the 384-well plates containing the substrate-inhibitor mixtures. […] Both proteasomes were added to the wells at a 1 nM final assay concentration. Fluorescence was measured over 4 h at 360 nm excitation and 460 nm emission on a Biotek Synergy HTX plate reader.

Data set [2] has as its target T. vaginalis Tv20S proteasome β5 subunit (Trichomonas vaginalis, UniProt A2DD57+A2F716). Nature of the data set: biochemical. The format is biochemical. As to conditions: recombinant Tv20S, mean ± SD of three experiments. As to the method:
as §1

Data set [3] concerns T. vaginalis Tv20S proteasome β2 subunit. Nature of the data set: In vitro proteasome assay, Ac-FRSR-amc substrate. The format is biochemical, Trichomonas vaginalis. As to conditions: recombinant Tv20S, mean ± SD of three experiments. As to the method: as §1
The target of data set [4] is T1, Human c20S proteasome β5 subunit (Homo sapiens, UniProt P20618+P28074).
T1 construct: purchased Bio-Techne
Nature of the data set: In vitro proteasome assay, suc-LLVY-amc substrate. The following applies: purified human c20S with PA28α, mean ± SD. The format is biochemical. As to the method: as §1

In data set [5] the target is T2, Human c20S proteasome β2 subunit (Homo sapiens, UniProt P49720+Q99436).
T2 construct: purchased Bio-Techne
Nature of the data set: In vitro proteasome assay, z-VLR-amc substrate. The format is biochemical. The following applies: purified human c20S with PA28α, mean ± SD. Here is the method: as §1

Data set [6] has as its target T3, Human c20S proteasome β1 subunit (Homo sapiens, UniProt P28072+Q99436).
T3 construct: purchased Bio-Techne
Nature of the data set: In vitro proteasome assay, z-LLE-amc substrate. As to conditions: purified human c20S with PA28α, mean ± SD. The format is biochemical. Here is the method:
as §1

In the next data set the test system is human cell line HeLa. Description: 48 h cytotoxicity (growth and viability) assay in mammalian cells. In kind it is cell-based. As to the method: The following T. vaginalis strains were used: F1623 ([50]), G3 (ATCC PRA-98), and LA1 ([25]). Parasites were grown at 37°C in TYM Diamond’s medium supplemented with 180 µM ferrous ammonium sulfate ([51]). Drug susceptibility assays were performed as described previously ([23]) with several minor modifications. Briefly, 10 mM stocks of the test compounds in DMSO were serially diluted 1:3 using an Echo 650 Acoustic Liquid Handler (Beckman Coulter). Subsequently, trophozoites (5 × 10^3/well) in TYM modified media were added to the wells in 384-well plates, and cultures were incubated for 24 h at 37°C under anaerobic conditions (AnaeroPack-Anaero System; Remel). For testing in mammalian cells, the following cell lines were used: Human cervical cancer cells HeLa (ATCC CCL-2), non-transformed mouse fibroblast cell line 3T3-L1 (ATCC CL-173), normal monkey kidney epithelial cell line Vero (ATCC CCL-81), and human B lymphoma cells Raji (ATCC CCL-86). […] Growth and viability of T. vaginalis and mammalian cells were determined with an ATP assay by adding the BacTiter-Glo Microbial Cell Viability Assay reagent (Promega) directly to the wells and measuring ATP-dependent luminescence in a microplate reader. […] Experiments were repeated at least three times, and the mean and SEM of the pGI50 values were calculated.

In data set [7] the test system is T. vaginalis strain F1623. Description: 24 h growth and survival assay (ATP luminescence, GI50). The format is cell-based, Trichomonas vaginalis. Here is the method:
The following T. vaginalis strains were used: F1623 ([50]), G3 (ATCC PRA-98), and LA1 ([25]). […] Drug susceptibility assays were performed as described previously ([23]) with several minor modifications. Briefly, 10 mM stocks of the test compounds in DMSO were serially diluted 1:3 using an Echo 650 Acoustic Liquid Handler (Beckman Coulter). Subsequently, trophozoites (5 × 10^3/well) in TYM modified media were added to the wells in 384-well plates, and cultures were incubated for 24 h at 37°C under anaerobic conditions (AnaeroPack-Anaero System; Remel). For testing in mammalian cells, the following cell lines were used: Human cervical cancer cells HeLa (ATCC CCL-2), non-transformed mouse fibroblast cell line 3T3-L1 (ATCC CL-173), normal monkey kidney epithelial cell line Vero (ATCC CCL-81), and human B lymphoma cells Raji (ATCC CCL-86). Test compounds were serially diluted (1:3) and added to mammalian cell cultures grown in 384-well plates, and cultures were incubated for 48 h at 37°C in 5% CO2, 95% air. Growth and viability of T. vaginalis and mammalian cells were determined with an ATP assay by adding the BacTiter-Glo Microbial Cell Viability Assay reagent (Promega) directly to the wells and measuring ATP-dependent luminescence in a microplate reader. […] Experiments were repeated at least three times, and the mean and SEM of the pGI50 values were calculated.

On the set-up of data set [8]: method as in PMID 30380863, PMID 36969170. The following applies: at therapeutic concentrations; cited from earlier work.

Sequence of T. vaginalis Tv20S proteasome β1 subunit (A2E7Z2 entry or part of it): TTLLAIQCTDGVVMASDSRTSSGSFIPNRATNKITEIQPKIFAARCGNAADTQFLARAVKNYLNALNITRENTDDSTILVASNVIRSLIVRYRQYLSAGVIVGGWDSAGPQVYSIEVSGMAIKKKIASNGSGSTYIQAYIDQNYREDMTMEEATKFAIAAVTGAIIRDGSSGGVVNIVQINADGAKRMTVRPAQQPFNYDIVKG
Sequence of T. vaginalis Tv20S proteasome β5 subunit (A2DD57 entry or part of it): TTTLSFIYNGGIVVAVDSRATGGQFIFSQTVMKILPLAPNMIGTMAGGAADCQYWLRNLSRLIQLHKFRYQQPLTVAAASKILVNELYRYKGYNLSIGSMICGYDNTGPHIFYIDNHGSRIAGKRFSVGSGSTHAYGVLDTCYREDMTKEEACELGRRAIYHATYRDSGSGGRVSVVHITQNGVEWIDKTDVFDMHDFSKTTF
Sequence of T. vaginalis Tv20S proteasome β5 subunit (A2F716 entry or part of it): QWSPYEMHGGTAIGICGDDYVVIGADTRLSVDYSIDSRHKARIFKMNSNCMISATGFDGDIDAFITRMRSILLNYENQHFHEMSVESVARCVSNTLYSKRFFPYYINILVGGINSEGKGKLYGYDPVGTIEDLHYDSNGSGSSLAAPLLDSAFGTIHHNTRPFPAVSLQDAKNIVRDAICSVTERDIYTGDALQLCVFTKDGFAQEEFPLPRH

As for `C=C(C)C(=O)[C@H](Cc1ccccc1)NC(=O)[C@H](Cc1ccc(OC)cc1)NC(=O)[C@H](C)NC(=O)C1=C(C)c2ccccc2C1` [compound 104], the “Tv20S proteasome inhibition of β1 subunit (IC50)” value in data set [1] is reported as “did not inhibit; also recorded: No inhibition”. Besides, the “Tv20S proteasome inhibition of β5 subunit (IC50)” value in data set [2] was “did not inhibit; also recorded: No inhibition”. The “Tv20S proteasome inhibition of β2 subunit (IC50)” value in data set [3] is on record as “did not inhibit; also recorded: No inhibition”. Further, in data set [4], the “Human c20S proteasome inhibition of β5 subunit (IC50)” value is reported as “no inhibitory activity; also recorded: No inhibition”. In addition, the “Human c20S proteasome inhibition of β2 subunit (IC50)” value in data set [5] was “no inhibitory activity; also recorded: No inhibition”. The “Human c20S proteasome inhibition of β1 subunit (IC50)” value in data set [6] was “no inhibitory activity; also recorded: No inhibition”. Also, in the data set on human cell line HeLa, the “growth inhibitory activity against human cells (in words)” value is on record as “only minimally inhibitory”. Moreover, the “growth inhibitory activity against T. vaginalis (in words)” value in data set [7] (F1623) is listed as “only minimally inhibitory”. For the same compound, in data set [7] (T. vaginalis F1623 vs human HeLa cells), the “SI (ratio of GI50 in HeLa cells over GI50 in T. vaginalis)” value came out at 1.05.

With `COc1ccc([C@@H](O)[C@H](NC(=O)[C@H](C)NC(=O)CN2CCOCC2)C(=O)N[C@@H](CC2=CCCC2)C(=O)[C@@]2(C)CO2)cc1` [zetomipzomib, (2 S,3 R)-N-((S)-3-(Cyclopent-1-en-1-yl)-1-((R)-2-methyloxiran-2-yl)-1-oxopropan-2-yl)-3-hydroxy-3-(4-methoxyphenyl)-2-((S)-2-(2-morpholinoacetamido)propanamido)propenamide], the “effect on T-dependent antibody responses or number of circulating lymphocytes” value in data set [8] is “did not significantly affect”.
